Measured values from the supplement of paper PMC4862054.
“And” between values parts separate entries of the source, which are not always exact repeats. Equal entries are not always repeated.

Key:
Experiment in all cases: normalised viability (% of control), CellTiter-Blue; higher = more viable cells (about 100 = DMSO control)
HCC1143 [1] = settings: incubation time: 72 h
Method in brief: (§1)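 384-well plates were pre-loaded with compound in 5 µl medium before 20 µl of breast cancer cell suspension was seeded. Following 72 h incubation, 2.5 µl CellTiter-Blue reagent was added for 2 h at 37 °C. Fluorescence was read at 560/590 nm and plates were normalised to vehicle (100) and a positive kill control (0), checked by Z'-factor. Normalised viability is reported at a single listed concentration of the series.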

MDA-MB-453 [2] = settings: incubation time: 72 h
Method in brief: as §1

SK-BR-3 [3] = settings: incubation time: 72 h
Method in brief: as §1

BT-474 [4] = settings: incubation time: 72 h
Method in brief: as §1

DU-4475 [5] = settings: incubation time: 72 h
Method in brief: as §1

MDA-MB-468 [6] = settings: incubation time: 72 h
Method in brief: as §1

CAL-148 [7] = settings: incubation time: 72 h
Method in brief: as §1

CAL-51 [8] = settings: incubation time: 72 h
Method in brief: as §1

MFM-223 [9] = settings: incubation time: 72 h
Method in brief: as §1

MDA-MB-231 [10] = settings: incubation time: 72 h
Method in brief: as §1

HCC1599 [11] = settings: 10 nM; incubation time: 72 h
Method in brief: as §1

HCC1937 [12] = settings: incubation time: 72 h
Method in brief: as §1

HCC1143 [13] = settings: 100 nM; incubation time: 72 h
Procedure: (§2)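 DSRT, CellTiter-Blue viability, 72 h incubation. Signal is normalised to DMSO and benzethonium chloride controls. Value is the normalised response at dose 3.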

MDA-MB-436 = settings: 100 nM; incubation time: 72 h
Procedure: as §2

Hs578T = settings: 100 nM; incubation time: 72 h
Procedure: as §2

MDA-MB-453 [14] = settings: 10 nM; incubation time: 72 h
Procedure: as §2

SK-BR-3 [15] = settings: 100 nM; incubation time: 72 h
Procedure: as §2

HDQ-P1 = settings: 10 nM; incubation time: 72 h
Procedure: as §2

BT-474 [16] = settings: 100 nM; incubation time: 72 h
Procedure: as §2

DU-4475 [17] = settings: 10 nM; incubation time: 72 h
Procedure: as §2

CAL-85-1 = settings: 10 nM; incubation time: 72 h
Procedure: as §2

MDA-MB-468 [18] = settings: 100 nM; incubation time: 72 h
Procedure: as §2

CAL-148 [19] = settings: 10 nM; incubation time: 72 h
Procedure: as §2

BT-549 = settings: 100 nM; incubation time: 72 h
Procedure: as §2

CAL-51 [20] = settings: 10 nM; incubation time: 72 h
Procedure: as §2

CAL-120 = settings: 100 nM; incubation time: 72 h
Procedure: as §2

MFM-223 [21] = settings: 100 nM; incubation time: 72 h
Procedure: as §2

MDA-MB-231 [22] = settings: 100 nM; incubation time: 72 h
Procedure: as §2

HCC1599 [23] = settings: 100 nM; incubation time: 72 h
Procedure: as §2

HCC1937 [24] = settings: 100 nM; incubation time: 72 h
Procedure: as §2

Cc1cn(-c2cc(NC(=O)c3ccc(C)c(Nc4nccc(-c5cccnc5)n4)c3)cc(C(F)(F)F)c2)cn1 [Nilotinib]
normalised viability
Settings | 3 nM | 10 nM | 30 nM | 100 nM | 1000 nM | 10000 nM
BT-474 [4] | – | 107% and 99.8% | – | – | 93.9% and 106% | 92.1% and 103%
CAL-51 [8] | 107% and 112% | – | 108% and 106% | 101% and 111% | – | –
CAL-148 [7] | 77% and 88.5% | – | 86.2% and 93.4% | 90.8% and 95.3% | – | –
DU-4475 [5] | 105% and 98.1% | – | 96.6% and 119% | 97.6% and 99.3% | – | –
HCC1143 [1] | – | 70.6% and 81.2% | – | – | 98.7% and 101% | 65% and 65.2%
HCC1937 [12] | – | 86% and 80.5% | – | – | 69.4% | 71.9% and 73.7%
MDA-MB-231 [10] | – | 87.6% and 94.3% | – | – | 71.3% and 75.2% | 57.3% and 45.2%
MDA-MB-453 [2] | 111% and 103% | – | 95.6% and 90% | 91.7% and 103% | – | –
MDA-MB-468 [6] | – | 100% and 102% | – | – | 108% and 106% | 97.5% and 108%
MFM-223 [9] | – | 92.3% and 91.1% | – | – | 98.9% and 91% | 91.7% and 89.4%
SK-BR-3 [3] | – | 104% and 94.5% | – | – | 100% and 96.5% | 90.4% and 94.3%

Settings | normalised viability
BT-474 [16] | 104% and 102%
BT-549 | 95.6% and 88.2%
CAL-51 [20] | 109% and 111%
CAL-85-1 | 93.2% and 92.5%
CAL-120 | 80.1% and 86.2%
CAL-148 [19] | 89.9% and 90.2%
DU-4475 [17] | 98.8% and 104%
HCC1143 [13] | 94.3% and 91.8%
HCC1599 [11] | 93.3% and 95.8%
HCC1599 [23] | 113% and 111%
HCC1937 [24] | 90.7% and 85.8%
HDQ-P1 | 101% and 85.7%
Hs578T | 78.3% and 89.4%
MDA-MB-231 [22] | 80.4% and 89.5%
MDA-MB-436 | 100% and 93.8%
MDA-MB-453 [14] | 94% and 89%
MDA-MB-468 [18] | 95.9% and 102%
MFM-223 [21] | 99.6% and 95.5%
SK-BR-3 [15] | 73.4% and 86.6%
